Measured values reported in patent publication US10272056B2, “Treatment for mitochondrial diseases” (The George Washington University a Congressionally …, priority 2015, dated 2019).

Experiments:
[1] = test system: E17.5 hippocampal neurons; experiment: Mitochondrial mass in neurons (mito-GFP, quantitative immunohistochemistry COXVα/tubulin); assay type: cell-based; settings: NaBt-treated E17.5 neurons; control 7%
From the text: FIG. 7A-7F show images from microscopy and graphs showing NaBt increases mitochondrial mass. (A) Live cell confocal microscopy of E17.5 hippocampal neurons; high magnification in inset; scale bar=5 (B) Quantitative analysis of the mitochondrial biomass in E17.5 neurons using an anti-CoxVα antibody; *p<0.001. (C) Live cell confocal microscopy of PC12-ND6 cells; high magnification in inset; scale bar=5 (D) Flow cytometric analysis of mitochondrial mass; *p<0.001. (E) Confocal microscopy of E17.5 brains from E12.5 pregnant dams treated with PBS (sham) or NaBt; scale bar=20 (F) Quantitative analysis of mitochondrial mass; *p<0.001.
Experimental approaches. Five distinct molecular tools were used to investigate mitochondrial biogenesis: 1) the mitochondrial-specific dyes, MitoTracker® Green (MTG) and MitoTracker® Red (MTR); 2) the mito-GFP or mito-dsRed vector to fluorescently label mitochondria; 3) antibodies against mtDNA, COXVα, or SOD2; 4) the fluorescent PicoGreen® dye labeling mtDNA; and 5) quantitative PCR to determine mtDNA copy number.
The effect of NaBt was investigated in embryonic neuronal progenitor cells, E17.5 hippocampal neurons, which were transfected with the mito-GFP vector and then exposed to various concentrations of NaBt. […] Therefore, all subsequent treatment of E17.5 hippocampal neurons with NaBt was performed in the presence of 2 mM. […]

neuronal cells [2] = experiment: Mitochondrial membrane potential (TMRM dye, confocal microscopy and flow cytometry); assay type: cell-based; settings: NaBt-treated cells
Procedure: (§1) FIG. 9A-9C are graphs and images from microscopy showing that NaBt enhances mitochondrial bioenergetics. (A) Flow cytometric analysis of Δψm; *p<0.001. (B) ATP levels in live cells using a Mg^2+-based assay; *p<0.001. (C) Electron microscopy of mitochondria in control and NaBt-treated cells; scale bar=200 nm.
(§2) NaBt increases mitochondrial membrane potential (Δψm) and ATP levels. The MTR-based data raised the question: could NaBt also enhance mitochondrial bioenergetics? Δψm was assessed by live cell confocal microscopy and flow cytometry using the TMRM dye, which accumulates in the mitochondrial matrix in a Δψm-dependent fashion. A 1.5-fold increase in Δψm in NaBt-treated cells was observed (FIG. 9A). To test whether enhanced Δψm led to increased ATP output, ATP levels were monitored using the live cell Mg^2+-based ATP assay, which is compatible with the TMRM dye, allowing simultaneous recordings. A 1.6-fold increase in ATP levels in NaBt-treated cells was observed (FIG. 9B), in line with the MTR- and TMRM-based findings and the elongated mitochondrial morphology.

neuronal cells [3] = experiment: Live cell Mg2+-based ATP assay; settings: NaBt-treated cells
Procedure: as §1, §2

PC12-ND6 cells = experiment: Neurite outgrowth with dbcAMP; assay type: cell-based
Procedure: FIG. 13A-13E are images from microscopy and graphs showing that the timing of NaBt treatment is critical for enhancing neuronal differentiation of PC12-ND6 cells upon sub-optimal neurotrophic cues. (A) Confocal micrographs of PC12-ND6 cells treated with dbcAMP alone or with NaBt (5 mM) in a simultaneous or sequential manner. Scale bar represents 5 μm. (B) Graph of neurite length. Mean±SEM (n=50 for each condition; compared to control (no NaBt) *p=0.0001 and **p=0.0009). (C) Confocal micrographs of PC12-ND6 cells treated with sub-optimal NGF concentration (10 ng/ml) alone or first NaBt (5 mM) in a simultaneous or sequential manner. Scale bar represents 10 μm. (D) Graph of average total neurite length. Mean±SEM (n=50 for each condition; compared to control *p=0.0001). (E) Graph of the frequency of total neurite length below and above 90 μm.
The timing of NaBt pre-treatment is critical for enhancing neuronal differentiation of PC12-ND6 cells and potentiating sub-optimal neurotrophic cues. We next investigated whether NaBt-mediated increase of mitochondrial biogenesis could potentiate subsequent sub-optimal neurotrophic cues to trigger effective neurite outgrowth in PC12-ND6 cells and whether a temporal window for NaBt responsiveness might exist. […]

MELAS fibroblasts = experiment: Relative cellular ATP levels (magnesium green dye); assay type: cell-based, human
Procedure: FIG. 19 is a graph showing that NaBt augments the relative cellular ATP levels in MELAS fibroblasts. The relative cellular ATP content was examined by a fluorescent probe, magnesium green (Mg Gr). MELAS fibroblasts were treated for 6 and 24 hours with NaBt (2.5 m M) before being labeled with Mg-Gr.
To assess relative cellular ATP levels in live MELAS fibroblasts, the fluorescent magnesium green (Mg-Gr) dye, which has been successfully employed in live patient fibroblasts, was used. Fluorescence emission from the Mg-Gr dye is directly proportional to the concentration of intracellular free Mg2+ concentration. Since the affinity of Mg2+ for ATP is about ten times higher than its affinity for ADP or AMP, the fluorescence intensity is inversely correlated with the intracellular levels of ATP. A time course exposure to NaBt ([…]) was performed using MELAS fibroblasts from one patient that has been comprehensively evaluated in terms of mitochondrial mass, mitochondrial membrane potential, and mitochondrial dynamics and networking (FIGS. 17 and 18). […] Thus, butyrates augment the functional mitochondrial mass in dermal MELAS fibroblasts, thereby reversing their deficits in mitochondrial mass and bioenergetics capacity.

HDAC1-3 enzymes = settings: via the HDAC1-3 enzymes; cited from earlier work

With `CCCC(=O)[O-].[Na+]` [NaBt, sodium butyrate] the “mitochondria as percent of the cell volume” value [1] was 18%, the “increase in Δψm” value (neuronal cells [2]) was 1.5 fold and the “increase in ATP levels” value (neuronal cells [3]) was 1.6 fold. For the same compound, the neuritogenesis upon co-addition (PC12-ND6 cells; NaBt 5 mM and dbcAMP 1 mM added together) was “severely dampened”, the neurite length (PC12-ND6 cells; NaBt pre-treatment three days at highest dose, then dbcAMP 1 mM 24 hours) was 50 μm and the “relative cellular ATP levels” value (MELAS fibroblasts; 24 hours NaBt 2.5 mM) was “became more accentuated”. The “relative cellular ATP levels” value (MELAS fibroblasts; first 24 hours of NaBt (2.5 mM) treatment) was “steady increase in relative cellular ATP levels”, the “relative cellular ATP levels” value (MELAS fibroblasts; six hours NaBt 2.5 mM) was “increase in relative cellular ATP levels” and the “subset of genes targeted” value (HDAC1-3 enzymes) was 2-5%.
